Test results reported in PubChem BioAssay AID330 (DTP/NCI, 2004).
“And” between values parts separate entries of the source, which are not always exact repeats. Identical values can stand only once. Inconclusive results and toxic doses are left out.

Tested on: P388 leukemia ip, CD2F1 mice, survival T/C
Assay: NCI In Vivo Anticancer Drug Screen. Data for tumor model P388 Leukemia (intraperitoneal) in CD2F1 (CDF1) mice
Conditions: endpoint: median survival time, higher = longer survival
How it was run: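 Mice carrying the transplanted tumor received test compound or vehicle. Survival was recorded in each group, and the value is the treated-group measurement divided by that of the vehicle-treated control group.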

`N[C@@H](Cc1ccc(N(CCCl)CCCl)cc1)C(=O)O` was tested, and the T/C (dose: 0.25 mg/kg/injection, schedule: Q01DX009 (ip), vehicle: saline) was 152 % of control, the T/C (dose: 0.25 mg/kg/injection, schedule: Q01DX009 (ip), vehicle: suspension in saline) was 117 % of control and the T/C (dose: 0.25 mg/kg/injection, schedule: Q03HX008 (ip), vehicle: saline) was 165 % of control. The T/C (dose: 0.38 mg/kg/injection, schedule: Q01DX005 (ip), vehicle: saline) was 154 % of control, the T/C (dose: 0.5 mg/kg/injection, schedule: Q01DX005 (ip), vehicle: saline) was 153 % of control and 189 % of control and the T/C (dose: 0.5 mg/kg/injection, schedule: Q01DX009 (ip), vehicle: saline) was 163 % of control and 170 % of control. For the same compound, the T/C (dose: 0.5 mg/kg/injection, schedule: Q01DX009 (ip), vehicle: suspension in saline) was 123 % of control, the T/C (dose: 0.5 mg/kg/injection, schedule: Q03HX008 (ip), vehicle: saline) was 190 % of control and the T/C (dose: 0.5 mg/kg/injection, schedule: Q04DX003 (ip), vehicle: water) was 150 % of control. For the same compound, the T/C (dose: 0.54 mg/kg/injection, schedule: Q01DX009 (ip), vehicle: saline) was 175 % of control, the T/C (dose: 0.75 mg/kg/injection, schedule: Q01DX005 (ip), vehicle: saline) was 172 % of control and the T/C (dose: 0.75 mg/kg/injection, schedule: Q04DX003 (ip), vehicle: saline) was 150 % of control. The T/C (dose: 0.9 mg/kg/injection, schedule: Q01DX009 (ip), vehicle: saline) was 193 % of control, the T/C (dose: 1.0 mg/kg/injection, schedule: Q01DX005 (ip), vehicle: water) was 167 % of control and the T/C (dose: 1.0 mg/kg/injection, schedule: Q01DX009 (ip), vehicle: Klucel (hydroxypropylcellulose) (HPC)) was 222 % of control. The T/C (dose: 1.0 mg/kg/injection, schedule: Q01DX009 (ip), vehicle: saline) was 193 % of control and 209 % of control and 227 % of control, the T/C (dose: 1.0 mg/kg/injection, schedule: Q01DX009 (ip), vehicle: suspension in saline) was 163 % of control and the T/C (dose: 1.0 mg/kg/injection, schedule: Q04DX003 (ip), vehicle: saline) was 176 % of control. For the same compound, the T/C (dose: 1.0 mg/kg/injection, schedule: Q04DX003 (ip), vehicle: water) was 162 % of control, the T/C (dose: 1.25 mg/kg/injection, schedule: Q04DX003 (ip), vehicle: saline) was 176 % of control and the T/C (dose: 1.25 mg/kg/injection, schedule: Q04DX003 (ip), vehicle: water) was 158 % of control and 200 % of control. The T/C (dose: 1.25 mg/kg/injection, schedule: Q04DX003 (iv), vehicle: saline) was 124 % of control, the T/C (dose: 1.5 mg/kg/injection, schedule: Q01DX005 (ip), vehicle: saline) was 203 % of control and the T/C (dose: 1.5 mg/kg/injection, schedule: Q01DX009 (ip), vehicle: Klucel (hydroxypropylcellulose) (HPC)) was 101 % of control. For the same compound, the T/C (dose: 1.5 mg/kg/injection, schedule: Q01DX009 (ip), vehicle: saline) was 227 % of control, the T/C (dose: 1.5 mg/kg/injection, schedule: Q04DX003 (ip), vehicle: Klucel (hydroxypropylcellulose) (HPC)) was 225 % of control and the T/C (dose: 1.5 mg/kg/injection, schedule: Q04DX003 (ip), vehicle: saline) was 174 % of control. The T/C (dose: 1.62 mg/kg/injection, schedule: Q04DX003 (ip), vehicle: saline) was 180 % of control, the T/C (dose: 1.62 mg/kg/injection, schedule: Q04DX003 (ip), vehicle: water) was 191 % of control and the T/C (dose: 1.7 mg/kg/injection, schedule: Q04DX003 (ip), vehicle: saline) was 174 % of control. For the same compound, the T/C (dose: 1.94 mg/kg/injection, schedule: Q04DX002 (ip), vehicle: saline) was 190 % of control and 192 % of control and 206 % of control, the T/C (dose: 1.94 mg/kg/injection, schedule: Q04DX003 (ip), vehicle: saline) was 186 % of control and the T/C (dose: 2.0 mg/kg/injection, schedule: Q01DX009 (ip), vehicle: saline) was 236 % of control and 254 % of control. For the same compound, the T/C (dose: 2.0 mg/kg/injection, schedule: Q01DX009 (ip), vehicle: suspension in saline) was 174 % of control and 221 % of control, the T/C (dose: 2.0 mg/kg/injection, schedule: Q04DX003 (ip), vehicle: saline) was 196 % of control and 199 % of control and 200 % of control and the T/C (dose: 2.0 mg/kg/injection, schedule: Q04DX003 (ip), vehicle: water) was 189 % of control. The T/C (dose: 2.2 mg/kg/injection, schedule: Q01DX005 (ip), vehicle: saline) was 165 % of control and 203 % of control, the T/C (dose: 2.5 mg/kg/injection, schedule: Q01DX001 (ip), vehicle: Klucel (hydroxypropylcellulose) (HPC)) was 207 % of control and the T/C (dose: 2.7 mg/kg/injection, schedule: Q04DX003 (ip), vehicle: saline) was 194 % of control and 250 % of control. The T/C (dose: 2.7 mg/kg/injection, schedule: Q04DX003 (ip), vehicle: water) was 233 % of control, the T/C (dose: 3.0 mg/kg/injection, schedule: Q04DX003 (ip), vehicle: Klucel (hydroxypropylcellulose) (HPC)) was 119 % of control and the T/C (dose: 3.0 mg/kg/injection, schedule: Q04DX003 (ip), vehicle: saline) was 196 % of control. The T/C (dose: 3.24 mg/kg/injection, schedule: Q04DX002 (ip), vehicle: saline) was 202 % of control and 213 % of control and 243 % of control, the T/C (dose: 3.24 mg/kg/injection, schedule: Q04DX003 (ip), vehicle: saline) was 220 % of control and 227 % of control and the T/C (dose: 3.6 mg/kg/injection, schedule: Q01DX005 (ip), vehicle: saline) was 165 % of control and 233 % of control. The T/C (dose: 3.7 mg/kg/injection, schedule: Q04DX003 (ip), vehicle: saline) was 220 % of control, the T/C (dose: 3.75 mg/kg/injection, schedule: Q04DX003 (ip), vehicle: distilled water + Tween-80) was 215 % of control and the T/C (dose: 4.0 mg/kg/injection, schedule: Q01DX001 (ip), vehicle: suspension in saline) was 183 % of control. For the same compound, the T/C (dose: 4.0 mg/kg/injection, schedule: Q01DX009 (ip), vehicle: Klucel (hydroxypropylcellulose) (HPC)) was 161 % of control, the T/C (dose: 4.0 mg/kg/injection, schedule: Q01DX009 (ip), vehicle: saline) was 166 % of control and the T/C (dose: 4.0 mg/kg/injection, schedule: Q01DX009 (ip), vehicle: suspension in saline) was 169 % of control and 238 % of control. For the same compound, the T/C (dose: 4.0 mg/kg/injection, schedule: Q04DX003 (ip), vehicle: saline) was 199 % of control and 211 % of control and 240 % of control, the T/C (dose: 4.0 mg/kg/injection, schedule: Q04DX003 (ip), vehicle: water) was 225 % of control and the T/C (dose: 4.5 mg/kg/injection, schedule: Q04DX003 (ip), vehicle: saline) was 240 % of control. The T/C (dose: 5.0 mg/kg/injection, schedule: Q01DX001 (ip), vehicle: saline) was 208 % of control, the T/C (dose: 5.0 mg/kg/injection, schedule: Q04DX003 (iv), vehicle: saline) was 194 % of control and the T/C (dose: 5.4 mg/kg/injection, schedule: Q04DX002 (ip), vehicle: saline) was 254 % of control. For the same compound, the T/C (dose: 6.0 mg/kg/injection, schedule: Q01DX005 (ip), vehicle: saline) was 226 % of control, the T/C (dose: 6.0 mg/kg/injection, schedule: Q04DX003 (ip), vehicle: Klucel (hydroxypropylcellulose) (HPC)) was 117 % of control and the T/C (dose: 6.0 mg/kg/injection, schedule: Q04DX003 (ip), vehicle: saline) was 218 % of control. For the same compound, the T/C (dose: 6.7 mg/kg/injection, schedule: Q01DX001 (ip), vehicle: saline) was 185 % of control, the T/C (dose: 7.3 mg/kg/injection, schedule: Q04DX003 (ip), vehicle: saline) was 239 % of control and the T/C (dose: 8.0 mg/kg/injection, schedule: Q01DX009 (ip), vehicle: Klucel (hydroxypropylcellulose) (HPC)) was 109 % of control. For the same compound, the T/C (dose: 8.0 mg/kg/injection, schedule: Q01DX009 (ip), vehicle: saline) was 99 % of control and 100 % of control, the T/C (dose: 8.0 mg/kg/injection, schedule: Q01DX009 (ip), vehicle: suspension in saline) was 104 % of control and 108 % of control and the T/C (dose: 10.0 mg/kg/injection, schedule: Q01DX001 (iv), vehicle: saline) was 185 % of control. The T/C (dose: 10.0 mg/kg/injection, schedule: Q04DX003 (iv), vehicle: saline) was 100 % of control, the T/C (dose: 12.5 mg/kg/injection, schedule: Q04DX003 (ip), vehicle: saline) was 152 % of control and the T/C (dose: 12.6 mg/kg/injection, schedule: Q04DX003 (ip), vehicle: saline) was 239 % of control. The T/C (dose: 15.0 mg/kg/injection, schedule: Q04DX002 (ip), vehicle: saline) was 101 % of control and 109 % of control, the T/C (dose: 15.0 mg/kg/injection, schedule: Q04DX003 (ip), vehicle: saline) was 108 % of control and the T/C (dose: 16.0 mg/kg/injection, schedule: Q04DX003 (ip), vehicle: water) was 115 % of control. For the same compound, the T/C (dose: 17.5 mg/kg/injection, schedule: Q01DX001 (ip), vehicle: saline) was 243 % of control, the T/C (dose: 18.9 mg/kg/injection, schedule: Q04DX003 (ip), vehicle: saline) was 107 % of control and the T/C (dose: 24.0 mg/kg/injection, schedule: Q04DX003 (ip), vehicle: saline) was 107 % of control.
